One block for each molecule: values may come before it.
Assays:
[1] = biological target: T1, UGT1A9 (Homo sapiens, UniProt O60656); assay: in vitro; conditions: recombinant UGT1A9, pH 7.4, probe 4-MU
T1 sequence (O60656 26-530): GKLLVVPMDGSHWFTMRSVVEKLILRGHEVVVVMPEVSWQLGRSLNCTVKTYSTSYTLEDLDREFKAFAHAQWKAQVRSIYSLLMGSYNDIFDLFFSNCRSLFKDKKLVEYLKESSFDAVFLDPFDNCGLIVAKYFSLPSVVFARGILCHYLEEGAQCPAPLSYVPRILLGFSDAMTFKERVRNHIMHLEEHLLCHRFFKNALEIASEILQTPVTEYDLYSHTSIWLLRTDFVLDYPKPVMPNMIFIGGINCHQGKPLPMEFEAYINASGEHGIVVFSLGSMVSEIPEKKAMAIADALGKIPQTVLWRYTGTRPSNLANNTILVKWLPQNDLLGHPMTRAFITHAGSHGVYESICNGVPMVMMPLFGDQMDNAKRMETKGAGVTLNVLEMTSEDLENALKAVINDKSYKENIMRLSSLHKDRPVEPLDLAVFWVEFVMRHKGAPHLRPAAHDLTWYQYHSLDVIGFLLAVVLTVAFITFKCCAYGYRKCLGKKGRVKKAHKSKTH

[2] = biological target: T2, UGT1A6 (Homo sapiens, UniProt P19224); assay: Inhibition of 4-MU glucuronidation by recombinant UGT1A6; type: in vitro ADME; conditions: recombinant UGT1A6, pH 7.4, probe 4-MU, 100 μM inhibitor, 4-MU substrate, positive control diclofenac, read-out: Remaining activities (%) of UGT1A6
T2 construct: purchased BD Gentest (Woburn, MA); host or cells: baculovirus-infected insect cells
T2 sequence (P19224 27-532): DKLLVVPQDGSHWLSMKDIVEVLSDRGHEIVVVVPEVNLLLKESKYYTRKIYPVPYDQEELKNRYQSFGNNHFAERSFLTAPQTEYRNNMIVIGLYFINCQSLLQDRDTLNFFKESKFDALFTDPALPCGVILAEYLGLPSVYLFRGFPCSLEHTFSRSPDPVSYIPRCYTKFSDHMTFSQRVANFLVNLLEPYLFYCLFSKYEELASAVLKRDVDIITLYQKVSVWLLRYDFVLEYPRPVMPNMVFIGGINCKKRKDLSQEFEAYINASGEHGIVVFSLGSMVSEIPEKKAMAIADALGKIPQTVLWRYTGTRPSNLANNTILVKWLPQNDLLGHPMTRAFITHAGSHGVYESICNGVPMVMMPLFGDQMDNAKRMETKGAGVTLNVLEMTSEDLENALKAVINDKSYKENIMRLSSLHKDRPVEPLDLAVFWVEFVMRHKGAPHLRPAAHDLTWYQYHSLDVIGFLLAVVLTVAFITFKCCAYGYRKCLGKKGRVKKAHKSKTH

[3] = biological target: T3, UGT1A1 (Homo sapiens, UniProt P22309); assay: Inhibition of 4-MU glucuronidation by recombinant UGT1A1; conditions: human, recombinant UGT1A1, pH 7.4, probe 4-MU
T3 sequence (P22309 26-533): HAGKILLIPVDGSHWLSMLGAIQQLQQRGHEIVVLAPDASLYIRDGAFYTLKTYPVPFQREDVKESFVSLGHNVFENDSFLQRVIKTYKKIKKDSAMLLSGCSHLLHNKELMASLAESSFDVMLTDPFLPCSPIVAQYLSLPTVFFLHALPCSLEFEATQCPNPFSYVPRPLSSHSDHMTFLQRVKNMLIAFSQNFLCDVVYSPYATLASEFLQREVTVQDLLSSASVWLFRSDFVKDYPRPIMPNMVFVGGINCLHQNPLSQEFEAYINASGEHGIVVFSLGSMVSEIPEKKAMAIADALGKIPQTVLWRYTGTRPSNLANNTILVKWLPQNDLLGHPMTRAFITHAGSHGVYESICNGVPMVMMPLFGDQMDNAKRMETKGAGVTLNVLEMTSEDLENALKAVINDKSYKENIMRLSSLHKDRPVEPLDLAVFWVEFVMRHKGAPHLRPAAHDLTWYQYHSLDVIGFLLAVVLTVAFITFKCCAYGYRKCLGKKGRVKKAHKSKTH

[4] = biological target: T4, UGT1A7 (Homo sapiens, UniProt Q9HAW7); assay: Inhibition of 4-MU glucuronidation by recombinant UGT1A7; conditions: human, recombinant UGT1A7, pH 7.4, probe 4-MU
T4 sequence (Q9HAW7 26-530): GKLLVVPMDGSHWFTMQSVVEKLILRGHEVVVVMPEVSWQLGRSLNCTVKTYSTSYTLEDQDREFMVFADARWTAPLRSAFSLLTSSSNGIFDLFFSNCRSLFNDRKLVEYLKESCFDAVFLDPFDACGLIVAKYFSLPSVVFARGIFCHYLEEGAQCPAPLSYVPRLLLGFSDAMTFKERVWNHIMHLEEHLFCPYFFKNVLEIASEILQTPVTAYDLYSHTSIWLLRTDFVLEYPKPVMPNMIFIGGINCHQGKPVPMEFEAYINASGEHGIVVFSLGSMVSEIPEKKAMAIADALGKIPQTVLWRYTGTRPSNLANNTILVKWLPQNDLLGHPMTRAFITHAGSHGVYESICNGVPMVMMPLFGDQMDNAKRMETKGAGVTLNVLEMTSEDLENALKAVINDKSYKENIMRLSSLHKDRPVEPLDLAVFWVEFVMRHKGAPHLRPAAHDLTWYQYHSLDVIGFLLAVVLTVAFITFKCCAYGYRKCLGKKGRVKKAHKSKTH

[5] = biological target: T5, UGT1A4 (Homo sapiens, UniProt P22310); assay: Inhibition of TFP glucuronidation by recombinant UGT1A4; conditions: 100 μM inhibitor; TFP substrate; positive control hecogenin
T5 sequence (P22310 29-534): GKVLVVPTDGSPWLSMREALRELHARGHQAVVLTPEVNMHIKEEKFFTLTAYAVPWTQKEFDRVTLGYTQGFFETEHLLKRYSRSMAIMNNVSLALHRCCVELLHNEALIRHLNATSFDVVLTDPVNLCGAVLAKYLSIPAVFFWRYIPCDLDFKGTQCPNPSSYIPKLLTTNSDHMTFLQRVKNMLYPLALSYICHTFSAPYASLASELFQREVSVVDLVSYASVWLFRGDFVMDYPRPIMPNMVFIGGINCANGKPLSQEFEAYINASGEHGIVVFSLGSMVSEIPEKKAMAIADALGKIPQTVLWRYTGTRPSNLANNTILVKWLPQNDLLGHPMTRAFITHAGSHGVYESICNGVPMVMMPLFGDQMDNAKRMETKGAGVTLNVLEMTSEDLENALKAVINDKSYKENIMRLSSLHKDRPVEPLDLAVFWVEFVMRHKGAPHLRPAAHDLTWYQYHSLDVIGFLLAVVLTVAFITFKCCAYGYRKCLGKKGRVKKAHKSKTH

[6] = biological target: T6, UGT1A8 (Homo sapiens, UniProt Q9HAW9); assay: Inhibition of 4-MU glucuronidation by recombinant UGT1A8; conditions: recombinant UGT1A8, pH 7.4, probe 4-MU
T6 sequence (Q9HAW9 26-530): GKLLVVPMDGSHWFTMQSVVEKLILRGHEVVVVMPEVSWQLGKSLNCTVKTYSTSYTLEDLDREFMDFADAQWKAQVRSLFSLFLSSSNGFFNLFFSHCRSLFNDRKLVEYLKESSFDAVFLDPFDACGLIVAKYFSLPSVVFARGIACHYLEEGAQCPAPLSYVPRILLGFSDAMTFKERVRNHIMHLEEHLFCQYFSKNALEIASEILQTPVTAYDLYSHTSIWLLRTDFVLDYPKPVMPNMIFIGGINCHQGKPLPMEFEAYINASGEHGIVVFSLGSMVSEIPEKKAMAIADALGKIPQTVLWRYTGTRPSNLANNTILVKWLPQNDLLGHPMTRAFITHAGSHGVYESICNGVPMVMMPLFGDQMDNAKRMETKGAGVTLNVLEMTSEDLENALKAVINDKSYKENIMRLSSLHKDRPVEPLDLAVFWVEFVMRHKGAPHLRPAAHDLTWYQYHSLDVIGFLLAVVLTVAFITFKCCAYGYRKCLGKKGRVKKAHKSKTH

[7] = biological target: T7, UGT1A10 (Homo sapiens, UniProt Q9HAW8); assay: Inhibition of 4-MU glucuronidation by recombinant UGT1A10; conditions: recombinant UGT1A10, pH 7.4, probe 4-MU
T7 sequence (Q9HAW8 26-530): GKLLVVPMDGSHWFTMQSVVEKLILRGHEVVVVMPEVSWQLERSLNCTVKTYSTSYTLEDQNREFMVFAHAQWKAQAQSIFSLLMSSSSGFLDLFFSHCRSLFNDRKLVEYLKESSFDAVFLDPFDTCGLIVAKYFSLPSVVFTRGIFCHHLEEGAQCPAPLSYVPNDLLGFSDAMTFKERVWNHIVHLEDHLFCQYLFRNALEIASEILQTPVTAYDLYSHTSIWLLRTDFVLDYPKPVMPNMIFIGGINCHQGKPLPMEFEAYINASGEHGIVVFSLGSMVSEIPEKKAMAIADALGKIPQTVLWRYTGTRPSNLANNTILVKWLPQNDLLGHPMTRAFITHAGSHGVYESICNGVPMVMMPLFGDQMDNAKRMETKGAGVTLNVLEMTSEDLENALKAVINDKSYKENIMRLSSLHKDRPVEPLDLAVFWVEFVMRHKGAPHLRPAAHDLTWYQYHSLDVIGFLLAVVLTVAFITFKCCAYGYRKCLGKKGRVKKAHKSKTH

activity at 30 min, 100 µM [1]: 15.2 ± 1.2%
activity at 30 min, 100 µM [2]: 28.2 ± 10%
activity at 120 min, 100 µM [3]: 37 ± 2.1%
activity at 30 min, 100 µM [4]: 25.6 ± 11.2%
Molecule: O=C(O)Cc1ccccc1Nc1c(Cl)cccc1Cl [diclofenac]

Molecule: hecogenin
Remaining activities (%) of UGT1A4 [5]: 20.3 ± 6.6%

activity at 30 min, 100 µM [6]: 40.2 ± 5.3%
activity at 120 min, 100 µM [7]: 37.8 ± 8%
Molecule: CCCCC1C(=O)N(c2ccccc2)N(c2ccccc2)C1=O [phenylbutazone]
